Measurements from patent US12692254B2, “Benzimidazole inhibitors of PAD enzymes” (BRISTOL-MYERS SQUIBB COMPANY, priority 2018, dated 2026).

Each molecule was assayed against human PAD4 (hPAD4) (Homo sapiens, UniProt Q9UM07) (assay: RFMS human PAD4 functional assay (rapid-fire mass spectrum)). Details: 5 nM hPAD4 enzyme, 250 μM BAEE, 50 μM Calcium; 30 min preincubation, 90 min reaction at 37° C.
Assay type: biochemical
Outline: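 PAD4 (10 nM) preincubated 30 min with compound (top final 50 μM), then BAEE substrate added in pH 7.5 HEPES buffer with DTT, 50 μM calcium, TPEN; 90 min at 37° C. After TCA quench, citrulline derivatized with phenyl glyoxal (4 mM final, 30 min, 37° C) and quantified by RapidFire MS against internal standard.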

Chain of human PAD4 (hPAD4) (Q9UM07 whole entry): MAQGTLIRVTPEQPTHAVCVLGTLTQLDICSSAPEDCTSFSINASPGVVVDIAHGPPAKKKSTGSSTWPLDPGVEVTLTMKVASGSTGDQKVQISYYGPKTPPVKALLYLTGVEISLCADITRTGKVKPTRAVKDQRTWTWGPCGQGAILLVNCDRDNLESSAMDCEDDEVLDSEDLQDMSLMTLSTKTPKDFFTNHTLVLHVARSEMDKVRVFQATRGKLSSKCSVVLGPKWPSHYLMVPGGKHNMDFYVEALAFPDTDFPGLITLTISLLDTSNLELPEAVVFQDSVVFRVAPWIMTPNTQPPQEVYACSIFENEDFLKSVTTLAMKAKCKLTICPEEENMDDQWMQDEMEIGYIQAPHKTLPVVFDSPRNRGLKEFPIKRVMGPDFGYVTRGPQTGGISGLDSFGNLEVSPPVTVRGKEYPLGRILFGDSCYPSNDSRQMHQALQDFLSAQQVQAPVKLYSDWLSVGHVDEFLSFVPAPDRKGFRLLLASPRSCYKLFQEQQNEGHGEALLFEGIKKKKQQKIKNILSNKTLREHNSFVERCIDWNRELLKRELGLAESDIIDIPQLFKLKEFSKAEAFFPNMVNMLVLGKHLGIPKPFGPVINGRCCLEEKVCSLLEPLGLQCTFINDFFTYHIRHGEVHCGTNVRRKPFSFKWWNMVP

| IC50 | Structure (SMILES) |
| --- | --- |
| 22 nM | COc1cc(C(=O)N2CC3CCC2[C@@H]3N)cc2nc(-c3cc4cccnc4n3CC3CC3)n(CC3CN(C(=O)c4cc(F)ccc4F)C3)c12 (stereo partly drawn) [Example 422, (7R)-2-{2-[1-(cyclopropylmethyl)-1H-pyrrolo[2,3-b]pyridin-2-yl]-1-{[1-(2,5-difluorobenzoyl)azetidin-3-yl]methyl}-7-methoxy-1H-1,3-benzodiazole-5-carbonyl}-2-azabicyclo[2.2.1]heptan-7-amine] |
| 50 nM | COc1cc(C(=O)N2CC3CCC2[C@@H]3N)cc2nc(-c3cc4cccnc4n3CC3CC3)n(Cc3cnn(-c4cccnc4)c3)c12 (stereo partly drawn) [Example 395, (7R)-2-{2-[1-(cyclopropylmethyl)-1H-pyrrolo[2,3-b]pyridin-2-yl]-7-methoxy-1-{[1-(pyridin-3-yl)-1H-pyrazol-4-yl]methyl}-1H-1,3-benzodiazole-5-carbonyl}-2-azabicyclo[2.2.1]heptan-7-amine] |
| 96 nM | COc1cc(C(=O)N2CC3CCC2[C@@H]3N)cc2nc(-c3cc4cccnc4n3CC3CC3)n(CC3CCN(c4cnc(C#N)nc4)CC3)c12 (stereo partly drawn) [Example 221, 5-[4-({5-[(1R,4R.,7R)-7-amino-2-azabicyclo[2.2.1]heptane-2-carbonyl]-2-[1-(cyclopropylmethyl)-1H-pyrrolo[2,3-b]pyridin-2-yl]-7-methoxy-1H-1,3-benzodiazol-1-yl}methyl)piperidin-1-yl]pyrimidine-2-carbonitrile] |
| 34 nM | COc1cc(C(=O)N2C[C@H]3CC[C@@H]2[C@@H]3N)cc2nc(-c3cc4cccnc4n3CC3CC3)n(C3CN(C(=O)c4ccnc(Cl)n4)C3)c12 [Example 94, (1R,4R,7R)-2-{1-[1-(2-chloropyrimidine-4-carbonyl)azetidin-3-yl]-2-[1-(cyclopropylmethyl)-1H-pyrrolo[2,3-b]pyridin-2-yl]-7-methoxy-1H-1,3-benzodiazole-5-carbonyl}-2-azabicyclo[2.2.1]heptan-7-amine] |
| 66 nM | COc1cc(C(=O)N2CC3CCC2[C@@H]3N)cc2nc(-c3cc4ccccc4n3CC3CC3)n(Cc3cnn(CC#N)c3)c12 (stereo partly drawn) [Example 405, 2-[4-({5-[(7R)-7-amino-2-azabicyclo[2.2.1]heptane-2-carbonyl]-2-[1-(cyclopropylmethyl)-1H-indol-2-yl]-7-methoxy-1H-1,3-benzodiazol-1-yl}methyl)-1H-pyrazol-1-yl]acetonitrile] |
| 88 nM | COc1cc(C(=O)N2CC3CCC2[C@@H]3N)cc2nc(-c3cc4ccccc4n3CC(F)(F)F)n(Cc3cnn(C)c3)c12 (stereo partly drawn) [Example 495, (7R)-2-{7-methoxy-1-[(1-methyl-1H-pyrazol-4-yl)methyl]-2-[1-(2,2,2-trifluoroethyl)-1H-indol-2-yl]-1H-1,3-benzodiazole-5-carbonyl}-2-azabicyclo[2.2.1]heptan-7-amine] |
| 165 nM | C#CC(=O)N1CC(Cn2c(-c3cc4cccnc4n3CC3CC3)nc3cc(C(=O)N4CC5CCC4[C@@H]5N)cc(OC)c32)C1 (stereo partly drawn) [Example 133, 1-[3-({5-[(1R,4R,7R)-7-amino-2-azabicyclo[2.2.1]heptane-2-carbonyl]-2-[1-(cyclopropylmethyl)-1H-pyrrolo[2,3-b]pyridin-2-yl]-7-methoxy-1H-1,3-benzodiazol-1-yl}methyl)azetidin-1-yl]prop-2-yl-1-one] |
| 57 nM | COc1cc(C(=O)N2CC3CCC2[C@@H]3N)cc2nc(-c3cc4ccccc4n3CC3CC3)n(Cc3cnn(-c4ccc(O)nc4)c3)c12 (stereo partly drawn) [Example 399, 5-[4-({5-[(7R)-7-amino-2-azabicyclo[2.2.1]heptane-2-carbonyl]-2-[1-(cyclopropylmethyl)-1H-indol-2-yl]-7-methoxy-1H-1,3-benzodiazol-1-yl}methyl)-1H-pyrazol-1-yl]pyridin-2-ol] |
| 149 nM | COc1cc(C(=O)N2CC3CCC2[C@@H]3N)cc2nc(-c3cc4ccccc4n3CC3CC3)n(CC3CC(=O)N(C)C3)c12 (stereo partly drawn) [Example 474, 4-({5-[(7R)-7-amino-2-azabicyclo[2.2.1]heptane-2-carbonyl]-2-[1-(cyclopropylmethyl)-1H-indol-2-yl]-7-methoxy-1H-1,3-benzodiazol-1-yl}methyl)-1-methylpyrrolidin-2-one] |
| 94 nM | COc1cc(C(=O)N2C[C@H]3CC[C@@H]2[C@@H]3N)cc2nc(-c3cc4cccnc4n3CC3CC3)n(CC3CN(c4cncc(C#N)c4)C3)c12 [Example 7, 5-[3-({5-[(1R,4R,7R)-7-amino-2-azabicyclo[2.2.1]heptane-2-carbonyl]-2-[1-(cyclopropylmethyl)-1H-pyrrolo[2,3-b]pyridin-2-yl]-7-methoxy-1H-1,3-benzodiazol-1-yl}methyl)azetidin-1-yl]pyridine-3-carbonitrile] |
| 55 nM | COc1cc(C(=O)N2C[C@H]3CC[C@@H]2[C@@H]3N)cc2nc(-c3cc4cccnc4n3CC3CC3)n(CC3CN(c4cncc(C#N)n4)C3)c12 [Example 3, 6-(3-((5-((1R,4R,7R)-7-amino-2-azabicyclo[2.2.1]heptane-2-carbonyl)-2-(1-(cyclopropylmethyl)-1H-pyrrolo[2,3-b]pyridin-2-yl)-7-methoxy-1H-benzo[d]imidazol-1-yl)methyl)azetidin-1-yl)pyrazine-2-carbonitrile] |
| 62 nM | COc1cc(C(=O)N2C[C@H]3CC[C@@H]2[C@@H]3N)cc2nc(-c3cc4ccc(Cl)cc4n3CC3CC3)n(CC3CN(c4cncc(C)c4)C3)c12 [Example 23, (1R,4R,7R)-2-{2-[6-chloro-1-(cyclopropylmethyl)-1H-indol-2-yl]-7-methoxy-1-{[1-(5-methylpyridin-3-yl)azetidin-3-yl]methyl}-1H-1,3-benzodiazole-5-carbonyl}-2-azabicyclo[2.2.1]heptan-7-amine] |
| 21 nM | COc1cc(C(=O)N2C[C@H](N)C[C@@H](F)C2)cc2nc(-c3cc4ccccc4n3CC3CC3)n(CC3CN(C(=O)c4cc(C#N)ccc4F)C3)c12 [Example 152, 3-[3-({5-[(3R,5R)-3-amino-5-fluoropiperidine-1-carbonyl]-2-[1-(cyclopropylmethyl)-1H-indol-2-yl]-7-methoxy-1H-1,3-benzodiazol-1-yl}methyl)azetidine-1-carbonyl]-4-fluorobenzonitrile] |
| 75 nM | COc1cc(C(=O)N2CC3CCC2[C@@H]3N)cc2nc(-c3cc4ccccc4n3CC3CC3)n(CC3CN(C(=O)Nc4ccccc4)C3)c12 (stereo partly drawn) [Example 472, 3-({5-[(7R)-7-amino-2-azabicyclo[2.2.1]heptane-2-carbonyl]-2-[1-(cyclopropylmethyl)-1H-indol-2-yl]-7-methoxy-1H-1,3-benzodiazol-1-yl}methyl)-N-phenylazetidine-1-carboxamide] |
| 48 nM | COc1cc(C(=O)N2CC3CCC2[C@@H]3N)cc2nc(-c3cc4ccccc4n3CC3CC3)n(CC3CC(F)(F)C3)c12 (stereo partly drawn) [Example 478, (7R)-2-{2-[1-(cyclopropylmethyl)-1H-indol-2-yl]-1-[(3,3-difluorocyclobutyl)methyl]-7-methoxy-1H-1,3-benzodiazole-5-carbonyl}-2-azabicyclo[2.2.1]heptan-7-amine] |
| 37 nM | COc1cc(C(=O)N2C[C@H](N)C[C@@H](F)C2)cc2nc(-c3cc4ccccc4n3CC3CC3)n(Cc3cccs3)c12 [Example 255, (3R,5R)-1-{2-[1-(cyclopropylmethyl)-1H-indol-2-yl]-7-methoxy-1-[(thiophen-2-yl)methyl]-1H-1,3-benzodiazole-5-carbonyl}-5-fluoropiperidin-3-amine] |
| 86 nM | COc1cc(C(=O)N2C[C@H]3CC[C@@H]2[C@@H]3N)cc2nc(-c3cc4cccnc4n3CC3CC3)n(CC3CN(c4ncc(Br)cn4)C3)c12 [Example 32, (1R,4R,7R)-2-(1-{[1-(5-bromopyrimidin-2-yl)azetidin-3-yl]methyl}-2-[1-(cyclopropylmethyl)-1H-pyrrolo[2,3-b]pyridin-2-yl]-7-methoxy-1H-1,3-benzodiazole-5-carbonyl)-2-azabicyclo[2.2.1]heptan-7-amine] |
| 14 nM | COc1cc(C(=O)N2C[C@H]3CC[C@@H]2[C@@H]3N)cc2nc(-c3cc4ccccc4n3CC3CC3)n(CC3CN(c4ccnc(C#N)n4)C3)c12 [Example 1, 4-(3-((5-((1R,4R,7R)-7-amino-2-azabicyclo[2.2.1]heptane-2-carbonyl)-2-(1-(cyclopropylmethyl)-1H-indol-2-yl)-7-methoxy-1H-benzo[d]imidazol-1-yl)methyl)azetidin-1-yl)pyrimidine-2-carbonitrile] |
| 1190 nM | COc1cc(C(=O)N2C[C@H]3CC[C@@H]2[C@@H]3N)cc2nc(-c3cc4cccnc4n3CC3CC3)n(CCNS(C)(=O)=O)c12 [Example 286, N-(2-{5-[(1R,4R,7R)-7-amino-2-azabicyclo[2.2.1]heptane-2-carbonyl]-2-[1-(cyclopropylmethyl)-1H-pyrrolo[2,3-b]pyridin-2-yl]-7-methoxy-1H-1,3-benzodiazol-1-yl}ethyl)methanesulfonamide] |
| 162 nM | COc1cc(C(=O)N2C[C@H]3CC[C@@H]2[C@@H]3N)cc2nc(-c3cc4cccnc4n3CC3CC3)n(CC3CCN(C(=O)c4ccnc(C)n4)CC3)c12 [Example 199, (1R,4R,7R)-2-{2-[1-(cyclopropylmethyl)-1H-pyrrolo[2,3-b]pyridin-2-yl]-7-methoxy-1-{[1-(2-methylpyrimidine-4-carbonyl)piperidin-4-yl]methyl}-1H-1,3-benzodiazole-5-carbonyl}-2-azabicyclo[2.2.1]heptan-7-amine] |

| Structure (SMILES) | IC50 |
| --- | --- |
| COc1cc(C(=O)N2C[C@H]3CC[C@@H]2[C@@H]3N)cc2nc(-c3cc4ccccc4n3CC3CC3)n(C[C@H]3CCN(c4ccnc(C5CC5)n4)C3)c12 [Example 227, (1R,4R,7R)-2-{2-[1-(cyclopropylmethyl)-1H-indo1-2-yl]-1-{[(3S)-1-(2-cyclopropylpyrimidin-4-yl)pyrrolidin-3-yl]methyl}-7-methoxy-1H-1,3-benzodiazole-5-carbonyl}-2-azabicyclo[2.2.1]heptan-7-amine] | 41 nM |
